In this experiment the test system is Vcap cells. Description: CTG cell proliferation assay on Vcap cells (compounds alone or in combination, 5 days). Format: cell-based. As to the method: In vitro test of the inhibition effect of the compound in combination with androgen receptor pathway modulators on the prostate cancer cell proliferation.
Inhibition effect of the compounds such as B101, B102, B103, B104, B105, B106, C111 and the like, androgen receptor pathway modulators, hormone compounds, alone or in combination with each other on the prostate cancer cell proliferation were tested on Vcap cells (androgen receptor (+) prostate cancer cells) (ATCC, catalogue number CRL-2876). The specific experimental operation was as follows: 5×10^3 Vcap cells per well were inoculated into 96-well plates with transparent bottom and white wall (Corning, catalogue number CLS3903) containing the specific medium, and were cultured in a 37° C., 5% CO2 incubator for 24 hours. The tested compounds and the androgen receptor pathway modulators were prepared to a 150 mM stocking solution with DMSO (Sigma, catalogue number 276855), diluted with culture medium to the desired concentrations (the final concentration of DMSO is 0.2%), and then added to each well, 2 wells/concentration, followed by being incubated in a 37° C., 5% CO2 incubator for 5 days. The tested compounds were used alone or in combination with other androgen receptor pathway modulators and/or hormone compounds respectively. […] After that, 100 μl of CellTiter-Glo® cell viability assay reagent (Promega, catalogue number G7570) was added to each well and mixed well on a vibrator for 10 minutes to induce cell lysis. The 96-well plate was placed at room temperature for 10 minutes, so as to stabilize its luminescence signal. A white bottom membrane was pasted on the bottom of the plate and the plate was tested using EnSpire.

[1] abbreviates: tested compound 0.1 μM in combination with 1 μM B101.
Setting [2] is: tested compound 0.1 μM in combination with 1 μM B105.
[3] abbreviates: tested compound 1 μM in combination with 1 μM B101.
Where [4] appears, read: tested compound 1 μM in combination with 1 μM B105.
[5] abbreviates: tested compound 10 μM in combination with 1 μM B101.
[6] abbreviates: tested compound 10 μM in combination with 1 μM B105.
Setting [7] is: Homo sapiens, VCaP, 120 h, tested compound alone, 0.1 μM, read-out: Survival rate of Vcap cells.
The mark [8] stands for this setting: Homo sapiens, VCaP, 120 h, tested compound alone, 1 μM, read-out: Survival rate of Vcap cells.
The mark [9] stands for this setting: Homo sapiens, VCaP, 120 h, tested compound alone, 10 μM, read-out: Survival rate of Vcap cells.
Setting [10] is: tested compound 0.1 μM in combination with 1 μM ARN-509.
[11] abbreviates: tested compound 0.1 μM in combination with 1 μM Enzalutamide.
The mark [12] stands for this setting: tested compound 1 μM in combination with 1 μM ARN-509.
[13] abbreviates: tested compound 1 μM in combination with 1 μM Enzalutamide.
The mark [14] stands for this setting: tested compound 10 μM in combination with 1 μM ARN-509.
[15] abbreviates: tested compound 10 μM in combination with 1 μM Enzalutamide.

From patent publication US10933059B2, “Combination, application thereof and treatment method” (KANGPU BIOPHARMACEUTICALS, LTD., priority 2016, dated 2021) come the findings set out here.

The structures appear in SMILES notation. Like-named read-outs stand apart in the source and are kept apart here.

As for `CC(=O)Nc1ccc(OC[C@](C)(O)C(=O)Nc2ccc([N+](=O)[O-])c(C(F)(F)F)c2)cc1` [Andarine, reference compound], the “Survival rate of Vcap cells” value under setting [1] amounted to 69.8%; the “Survival rate of Vcap cells” value under setting [2] was determined as 71.1%; the “Survival rate of Vcap cells” value under setting [3] is recorded as 65.5%; the “Survival rate of Vcap cells” value under setting [4] is given as 64.6%; the “Survival rate of Vcap cells” value under setting [5] worked out at 53.8%; the “Survival rate of Vcap cells” value under setting [6] stood at 53.5%. Besides, the “Survival rate of Vcap cells” value is 85.6% (tested compound alone, 0.1 μM); 82.7% (tested compound alone, 1 μM); 69.4% (tested compound alone, 10 μM).

Regarding `Nc1cc(F)cc2c1CN([C@H]1CCC(=O)NC1=O)C2=O` [B102], the viability at 0.1 µM under setting [7] amounted to 84.7%. The viability at 1 µM under setting [8] was 80.9%. Moreover, the viability at 10 µM under setting [9] worked out at 78.4%. In addition, the “Survival rate of Vcap cells” value is, setting by setting: under setting [10], 47.2%; under setting [11], 46.3%; under setting [12], 40.2%; under setting [13], 41.1%; under setting [14], 38.3%; under setting [15], 40.1%. In addition, for the setting “tested compound alone, 1 μM”, the “Survival rate of Vcap cells” value is recorded as 80.9%.

`Nc1cc(F)cc2c1CN([C@@H]1CCC(=O)NC1=O)C2=O` [B103]: the viability at 0.1 µM under setting [7] is 86.3%. Besides, the viability at 1 µM under setting [8] came to 84.1%. The viability at 10 µM under setting [9] worked out at 85.5%. The “Survival rate of Vcap cells” value worked out at 48.8% under setting [10]; 50.2% under setting [11]; 41.7% under setting [12]; 42.7% under setting [13]; 38.3% under setting [14]; 42.9% under setting [15]. Besides, the “Survival rate of Vcap cells” value (tested compound alone, 1 μM) is recorded as 84.1%.

`[2H]C1(N2Cc3c(N)cc(F)cc3C2=O)CCC(=O)NC1=O` (centres unmarked) [B104]: the viability at 0.1 µM under setting [7] amounted to 84.4%. Also, the viability at 1 µM under setting [8] was determined as 77.4%. For the same compound, the viability at 10 µM under setting [9] stood at 74%. In addition, the “Survival rate of Vcap cells” value is, setting by setting: under setting [10], 45.7%; under setting [11], 47.1%; under setting [12], 40.5%; under setting [13], 41.2%; under setting [14], 37.8%; under setting [15], 38.8%. Besides, under “tested compound alone, 1 μM”, the “Survival rate of Vcap cells” value is on record as 77.4%.

Take `[2H][C@@]1(N2Cc3c(N)cc(F)cc3C2=O)CCC(=O)NC1=O` [B106]: the viability at 0.1 µM under setting [7] stood at 86.8%. The viability at 1 µM under setting [8] worked out at 79%. For the same compound, the viability at 10 µM under setting [9] was 74.1%. Further, the “Survival rate of Vcap cells” value stood at 50.6% under setting [10]; 50.6% under setting [11]; 41.1% under setting [12]; 40.5% under setting [13]; 39.9% under setting [14]; 38.2% under setting [15]. In addition, the “Survival rate of Vcap cells” value (tested compound alone, 1 μM) was determined as 79.0%.

Turning to `[2H][C@]1(N2Cc3c(OCc4ccc(CN5CCOCC5)cc4F)cccc3C2=O)CCC(=O)NC1=O` [C111], the inhibition at 0.05 µM (Homo sapiens, VCaP, 120 h, B105 or C111 0.05 μM alone, 5 days, read-out: Vcap cell proliferation inhibition rate) amounted to 19.6%. For the same compound, the inhibition at 0.14 µM (Homo sapiens, VCaP, 120 h, B105 or C111 0.14 μM alone, 5 days, read-out: Vcap cell proliferation inhibition rate) was determined as 20.9%. Further, for the setting “Homo sapiens, VCaP, 120 h, B105 or C111 1.23 μM alone, 5 days, read-out: Vcap cell proliferation inhibition rate”, the inhibition at 1.23 µM came out at 23.4%. In addition, the inhibition at 3.7 µM (Homo sapiens, VCaP, 120 h, B105 or C111 3.70 μM alone, 5 days, read-out: Vcap cell proliferation inhibition rate) is 25.4%. Moreover, the inhibition at 11.11 µM (Homo sapiens, VCaP, 120 h, B105 or C111 11.11 μM alone, 5 days, read-out: Vcap cell proliferation inhibition rate) was 28.8%. Further, the inhibition at 33.33 µM (Homo sapiens, VCaP, 120 h, B105 or C111 33.33 μM alone, 5 days, read-out: Vcap cell proliferation inhibition rate) came to 29.1%. In addition, the inhibition at 100 µM (Homo sapiens, VCaP, 120 h, B105 or C111 100.00 μM alone, 5 days, read-out: Vcap cell proliferation inhibition rate) stood at 31.6%. Further, the inhibition at 300 µM (Homo sapiens, VCaP, 120 h, B105 or C111 300.00 μM alone, 5 days, read-out: Vcap cell proliferation inhibition rate) amounted to 33.9%. Besides, the viability at 0.1 µM under setting [7] was 81.5%. Under setting [8], the viability at 1 µM was determined as 81%. Moreover, under setting [9], the viability at 10 µM stood at 77%. The “Survival rate of Vcap cells” value is, setting by setting: under setting [10], 37.0%; (tested compound 0.1 μM in combination with 1 μM Abiraterone acetate) 65.5%; under setting [11], 36.3%; (tested compound 0.1 μM in combination with 1 μM Galeterone) 46.6%; (tested compound 0.1 μM in combination with 1 μM ODM-201) 45.9%; under setting [12], 35.6%. The “Survival rate of Vcap cells” value reads like this: (tested compound 1 μM in combination with 1 μM Abiraterone acetate) 68.5%; under setting [13], 35.8%; (tested compound 1 μM in combination with 1 μM Galeterone) 47.0%; (tested compound 1 μM in combination with 1 μM ODM-201) 43.1%; under setting [14], 37.3%; (tested compound 10 μM in combination with 1 μM Abiraterone acetate) 66.1%. The “Survival rate of Vcap cells” value is 36.6% under setting [15], 47.8% (tested compound 10 μM in combination with 1 μM Galeterone) and 37.2% (tested compound 10 μM in combination with 1 μM ODM-201).

Regarding `CC(=O)O[C@]1(C(C)=O)CC[C@H]2[C@@H]3C=C(Cl)C4=CC(=O)[C@@H]5C[C@@H]5[C@]4(C)[C@H]3CC[C@@]21C` [Cyproterone Acetate, reference compound], the viability at 0.1 µM under setting [7] was 97.2%. In addition, the viability at 1 µM under setting [8] stood at 96%. For the same compound, the viability at 10 µM under setting [9] is 83.5%. For the same compound, the “Survival rate of Vcap cells” value is, setting by setting: under setting [1], 85.0%; under setting [2], 82.1%; under setting [3], 85.0%; under setting [4], 84.0%; under setting [5], 78.9%; under setting [6], 79.4%.

Consider `C[C@]12CC[C@H](O)C[C@@H]1CC[C@@H]1[C@@H]2CC[C@]2(C)C(=O)CC[C@@H]12` [Epiandrosterone, reference compound], for which the “Survival rate of Vcap cells” value runs as follows: under setting [2], 71.5%; under setting [3], 71.1%; under setting [4], 64.6%; under setting [5], 79.8%; under setting [6], 77.4%.

`CC(C)C(=O)Nc1ccc([N+](=O)[O-])c(C(F)(F)F)c1` [Flutamide, reference compound]: under setting [7], the viability at 0.1 µM stood at 105%. Under setting [8], the viability at 1 µM was found to be 96.7%. In addition, the viability at 10 µM under setting [9] is 73.1%. In addition, the “Survival rate of Vcap cells” value under setting [1] came to 80.4%; the “Survival rate of Vcap cells” value under setting [2] was 76.5%; the “Survival rate of Vcap cells” value under setting [3] is 65.1%; the “Survival rate of Vcap cells” value under setting [4] stood at 64.6%; the “Survival rate of Vcap cells” value under setting [5] came to 42.8%; the “Survival rate of Vcap cells” value under setting [6] is listed as 43.8%.

In the case of `C[C@](O)(COc1ccc(C#N)cc1)C(=O)Nc1ccc(C#N)c(C(F)(F)F)c1` [MK-2866, reference compound], for the setting “Homo sapiens, VCaP, 120 h, read-out: Survival rate of Vcap cells, tested compound alone, 0.1 μM”, the viability at 0.1 µM came out at 76.5%. In addition, the viability at 1 µM (Homo sapiens, VCaP, 120 h, read-out: Survival rate of Vcap cells, tested compound alone, 1 μM) was determined as 77.4%. In addition, where the note is “Homo sapiens, VCaP, 120 h, read-out: Survival rate of Vcap cells, tested compound alone, 10 μM”, the viability at 10 µM was 69.4%. The “Survival rate of Vcap cells” value under setting [1] was determined as 61.4%; the “Survival rate of Vcap cells” value under setting [2] turned out to be 62.6%; the “Survival rate of Vcap cells” value under setting [3] is 63.6%; the “Survival rate of Vcap cells” value under setting [4] is 59.7%; the “Survival rate of Vcap cells” value under setting [5] amounted to 52.7%; the “Survival rate of Vcap cells” value under setting [6] worked out at 52.5%.

On to `CC(=O)O[C@]1(C(C)=O)CC[C@H]2[C@@H]3C=C(C)C4=CC(=O)CC[C@]4(C)[C@H]3CC[C@@]21C` [Megestrol Acetate, reference compound], for which the viability at 0.1 µM under setting [7] came out at 99.7%. The viability at 1 µM under setting [8] was 103%. In addition, the viability at 10 µM under setting [9] is 88.9%. The “Survival rate of Vcap cells” value reads like this: under setting [1], 85.2%; under setting [2], 82.1%; under setting [3], 83.1%; under setting [4], 83.3%; under setting [5], 75.2%; under setting [6], 76.6%.
